The text below walks through data of the supplement of paper PMC10307832.

Assay in all cases: relative viability (nuclei count vs DMSO), 5 days (fraction); higher = more cells survive
Compound in experiment [1]: C1=CC=C2C(=C1)N=C(S2)C(C#N)C3=NC(=NC=C3)NCCC4=CN=CC=C4 + O=C(c1cc(Cc2n[nH]c(=O)c3ccccc23)ccc1F)N1CCN(C(=O)C2CC2)CC1 [Olaparib] (partner 8 µM)
The method in brief:
(§1)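 After 5 days of treatment, lung cancer cells in 1536-well plates were fixed and stained in a single step (final 0.05% Triton X-100, 1% formaldehyde, 1 ug/ml Hoechst) and their nuclei counted on 4× images. Treatment had been applied by pin tool the day after seeding as one drug alone or as a fixed anchor-drug dose with five library-drug doses (not always all listed) in √10 steps. Relative viability is the nuclei count of treated wells divided by that of vehicle wells, and values are medians of duplicate plates.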

Compound in the experiment “NVP-TAE684 + Tozasertib”: COc1cc(N2CCC(N3CCN(C)CC3)CC2)ccc1Nc1ncc(Cl)c(Nc2ccccc2S(=O)(=O)C(C)C)n1 [NVP-TAE684] + Cc1cc(Nc2cc(N3CCN(C)CC3)nc(Sc3ccc(NC(=O)C4CC4)cc3)n2)n[nH]1 [Tozasertib] (partner 0.1 µM)
Summed up:
as §1

Compound in the experiment “Vandetanib + Palbociclib”: COc1cc2/c(=N/c3ccc(Br)cc3F)nc[nH]c2cc1OCC1CCN(C)CC1 [Vandetanib] + CC(=O)c1c(C)c2cnc(Nc3ccc(N4CCNCC4)cn3)nc2n(C2CCCC2)c1=O [Palbociclib] (partner 0.5 µM)
The method in brief:
as §1

Compound in the experiment “Vandetanib + Bortezomib”: COc1cc2/c(=N/c3ccc(Br)cc3F)nc[nH]c2cc1OCC1CCN(C)CC1 [Vandetanib] + CC(C)C[C@H](NC(=O)[C@H](Cc1ccccc1)NC(=O)c1cnccn1)B(O)O [Bortezomib] (partner 0.002 µM)
Summed up:
as §1

In the case of UMC-11, the relative viability is 0.344 in experiment [1] (first compound 0.01581 µM); 0.349 in experiment [1] (first compound 0.05 µM); 0.366 in experiment [1] (first compound 0.1581 µM); 0.382 in experiment [1] (first compound 0.5 µM); 0.234 with NVP-TAE684 + Tozasertib (first compound 0.2 µM); 0.199 in the experiment with NVP-TAE684 + Tozasertib (first compound 0.6325 µM). Moreover, the relative viability is 0.197 in the experiment with NVP-TAE684 + Tozasertib (first compound 2 µM); 0.345 in the experiment with Vandetanib + Palbociclib (first compound 0.02 µM); 0.336 with Vandetanib + Palbociclib (first compound 0.06325 µM); 0.321 with Vandetanib + Palbociclib (first compound 0.2 µM); 0.348 with Vandetanib + Palbociclib (first compound 0.6325 µM); 0.345 in the experiment with Vandetanib + Palbociclib (first compound 2 µM). Further, the relative viability in the experiment with Vandetanib + Bortezomib (first compound 0.02 µM) worked out at 0.743; in the experiment with Vandetanib + Bortezomib (first compound 0.06325 µM), 0.708; with Vandetanib + Bortezomib (first compound 0.2 µM) it was 0.61; with Vandetanib + Bortezomib (first compound 0.6325 µM), 0.725; with Vandetanib + Bortezomib (first compound 2 µM) it was 0.746.
